The nature of data set [1]: Cytotoxicity against HEK293 cells. The note with it: human. The data set is classed as toxicity, cell-based.
Data set [2] addresses Phosphatidylinositol 3-kinase catalytic subunit type 3 (Homo sapiens, UniProt Q8NEB9). The data set is described as follows: Binding affinity to VPS34 (unknown origin) assessed as dissociation constant by competitive binding assay.
The target of data set [3] is T1, Signal transducer and activator of transcription 1-alpha/beta (Homo sapiens) (UniProt P42224).
T1 sequence (whole entry): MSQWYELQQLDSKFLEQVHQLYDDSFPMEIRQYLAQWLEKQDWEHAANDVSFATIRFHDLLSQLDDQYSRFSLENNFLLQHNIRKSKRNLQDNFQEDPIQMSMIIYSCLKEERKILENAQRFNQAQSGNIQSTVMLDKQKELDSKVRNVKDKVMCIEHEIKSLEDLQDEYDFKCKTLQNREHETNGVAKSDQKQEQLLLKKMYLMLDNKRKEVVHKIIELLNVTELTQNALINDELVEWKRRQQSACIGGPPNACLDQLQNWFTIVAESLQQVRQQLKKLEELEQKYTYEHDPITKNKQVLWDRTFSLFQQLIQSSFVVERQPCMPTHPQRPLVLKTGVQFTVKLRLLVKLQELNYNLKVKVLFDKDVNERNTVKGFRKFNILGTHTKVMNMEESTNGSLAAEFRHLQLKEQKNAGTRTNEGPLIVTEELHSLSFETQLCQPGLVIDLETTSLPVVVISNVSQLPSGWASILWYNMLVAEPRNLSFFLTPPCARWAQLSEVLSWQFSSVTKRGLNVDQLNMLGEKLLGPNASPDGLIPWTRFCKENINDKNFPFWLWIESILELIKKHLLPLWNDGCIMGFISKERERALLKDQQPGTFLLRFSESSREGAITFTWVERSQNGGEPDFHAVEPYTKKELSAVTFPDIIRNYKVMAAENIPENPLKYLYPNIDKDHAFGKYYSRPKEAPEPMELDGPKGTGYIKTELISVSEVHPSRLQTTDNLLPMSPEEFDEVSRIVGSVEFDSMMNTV
The data set is described as follows: Inhibition of STAT1 phosphorylation at S727 residue in human MV4-11 cells incubated for 24 hrs by Western blot analysis. It counts as cell-based. To be noted: dose 0.001-1 µM. (In general: Immunoblotting shows a protein as a band on a membrane.)

A short description of data set [4]: Bioavailability in Beagle dog at 1 mg/kg, po or 0.5 mg/kg, iv administered as single dose and measured for 24 hrs by LC-MS/MS analysis. The data set is classed as ADME, organism-based, Canis lupus familiaris. The note with it: in vivo.
The test system of data set [5] is MV4-11. The data set is described as follows: Antitumor activity against human MV4-11 cells xenografted in BALB/c nude mouse assessed as tumor growth inhibition at 3 mg/kg, po bid administered by gavage for 17 days and measured 3 times per week by caliper method relative to control. The data set is classed as functional. The note with it: MV4-11, 408 h, time 17 day, read-out: TGI. On the technique in general: In xenograft studies the graft and the host belong to different species.

The subject of data set [6] is MV4-11. The data set is described as follows: Antiproliferative activity against human MV4-11 cells assessed as inhibition of cell growth incubated for 10 days and replacement with fresh media with compounds on day 5 by CTG assay. The data set is classed as functional, cell-based.
Data set [7] in a line: Metabolic stability in mouse liver microsomes assessed as intrinsic clearance at 1 uM preincubated for 10 mins followed by NADPH addition and measured for 60 mins by LC-MS/MS analysis. It counts as ADME, Microsome. To be noted: read-out: CLH. (Liver microsomes are vesicles of endoplasmic reticulum, rich in cytochrome P450 enzymes.)
Data set [8] addresses T2, Serine/threonine-protein kinase LATS2 (Homo sapiens, UniProt Q9NRM7).
T2 sequence (Q9NRM7 whole entry): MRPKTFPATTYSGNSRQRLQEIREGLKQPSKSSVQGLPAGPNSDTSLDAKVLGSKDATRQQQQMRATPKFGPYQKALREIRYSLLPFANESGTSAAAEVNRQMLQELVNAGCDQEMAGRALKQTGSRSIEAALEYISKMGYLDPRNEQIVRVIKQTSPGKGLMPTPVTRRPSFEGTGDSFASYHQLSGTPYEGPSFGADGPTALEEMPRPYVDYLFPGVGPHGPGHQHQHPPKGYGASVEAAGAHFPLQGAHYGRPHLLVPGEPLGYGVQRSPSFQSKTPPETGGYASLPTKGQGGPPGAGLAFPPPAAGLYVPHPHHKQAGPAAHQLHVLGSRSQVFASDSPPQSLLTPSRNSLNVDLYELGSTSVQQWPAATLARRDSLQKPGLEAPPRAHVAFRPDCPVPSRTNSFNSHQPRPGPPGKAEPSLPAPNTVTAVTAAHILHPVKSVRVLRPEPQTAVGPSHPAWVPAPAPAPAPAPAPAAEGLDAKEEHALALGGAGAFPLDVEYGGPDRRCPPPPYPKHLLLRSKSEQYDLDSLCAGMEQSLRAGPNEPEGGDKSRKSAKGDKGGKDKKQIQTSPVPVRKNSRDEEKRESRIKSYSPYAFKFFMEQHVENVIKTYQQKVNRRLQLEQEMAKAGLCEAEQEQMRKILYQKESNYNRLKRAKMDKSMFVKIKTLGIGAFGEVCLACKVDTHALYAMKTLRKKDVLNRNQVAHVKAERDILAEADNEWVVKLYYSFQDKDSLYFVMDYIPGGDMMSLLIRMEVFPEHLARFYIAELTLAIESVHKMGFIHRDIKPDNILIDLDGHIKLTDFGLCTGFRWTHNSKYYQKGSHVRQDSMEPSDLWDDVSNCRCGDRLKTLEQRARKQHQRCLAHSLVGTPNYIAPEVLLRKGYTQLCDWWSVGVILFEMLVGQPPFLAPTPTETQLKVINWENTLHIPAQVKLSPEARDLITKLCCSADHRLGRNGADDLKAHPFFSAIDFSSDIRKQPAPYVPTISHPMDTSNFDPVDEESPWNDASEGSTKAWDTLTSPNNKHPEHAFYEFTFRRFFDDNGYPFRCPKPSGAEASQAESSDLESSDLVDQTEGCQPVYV
The data set is described as follows: Binding affinity to LATS2 (unknown origin) assessed as dissociation constant by competitive binding assay.

Data set [9] is described as follows: Half life in Sprague-Dawley rat at 5 mg/kg, po or 1 mg/kg, iv administered as single dose and measured for 24 hrs by LC-MS/MS analysis. The data set is classed as ADME, organism-based. The note with it: in vivo.
Data set [10] in a line: Half life in CD-1 mouse at 5 mg/kg, po or 1 mg/kg, iv administered as single dose and measured for 24 hrs by LC-MS/MS analysis. To be noted: in vivo. It counts as ADME, organism-based.
For data set [11], the target named is Cytochrome P450 2D6 (Homo sapiens, UniProt P10635). The data set is described as follows: Inhibition of CYP2D6 in human liver microsomes using dextromethorphan as substrate assessed as reduction in substrate demethylation incubated for 10 mins in presence of NADPH by LC-MS/MS analysis. It counts as ADME, Microsome.
Sequence of Cytochrome P450 2D6 (P10635 whole entry): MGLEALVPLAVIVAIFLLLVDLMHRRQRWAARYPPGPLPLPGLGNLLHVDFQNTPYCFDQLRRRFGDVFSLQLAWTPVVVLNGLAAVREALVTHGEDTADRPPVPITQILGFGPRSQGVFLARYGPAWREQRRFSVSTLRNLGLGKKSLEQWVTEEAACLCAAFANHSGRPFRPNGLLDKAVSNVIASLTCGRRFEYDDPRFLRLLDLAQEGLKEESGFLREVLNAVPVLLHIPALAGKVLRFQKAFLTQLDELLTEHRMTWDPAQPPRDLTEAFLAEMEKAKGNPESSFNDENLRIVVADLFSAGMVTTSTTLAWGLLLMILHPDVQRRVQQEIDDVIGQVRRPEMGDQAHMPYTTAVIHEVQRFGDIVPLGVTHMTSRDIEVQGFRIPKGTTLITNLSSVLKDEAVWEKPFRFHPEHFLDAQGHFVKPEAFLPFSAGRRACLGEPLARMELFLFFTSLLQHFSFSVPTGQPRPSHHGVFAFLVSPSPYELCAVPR
A short description of data set [12]: Clearance in Beagle dog assessed as liver blood flow at 1 mg/kg, po or 0.5 mg/kg, iv administered as single dose and measured for 24 hrs by LC-MS/MS analysis. It counts as ADME, organism-based, Canis lupus familiaris. The note with it: in vivo.
Data set [13] has as its target Dual specificity protein kinase CLK1 (Homo sapiens, UniProt P49759). The data set is described as follows: Binding affinity to CLK1 (unknown origin) assessed as dissociation constant by competitive binding assay.
Data set [14] deals with Mus musculus. The data set is described as follows: In vivo inhibition of STAT1 phosphorylation at S727 residue in BALB/c nude mouse xenografted with human MV4-11 cells assessed as reduction in p-STAT1 protein level administered orally by gavage twice per day for 17 days and measured 24 hrs post last dose by Western blot analysis. The data set is classed as functional, organism-based. To be noted: dose 1-10 mg/kg, route po, time 17.0 day.

The text below walks through data of ChEMBL document CHEMBL5380857, “Discovery of Potent, Selective, and Orally Bioavailable Small-Molecule Inhibitors of CDK8 for the Treatment of Cancer” (J Med Chem, 2023).

pEC50, pIC50, pKd: −log10 of the molar value.

Sequence of Phosphatidylinositol 3-kinase catalytic subunit type 3 (Q8NEB9 whole entry): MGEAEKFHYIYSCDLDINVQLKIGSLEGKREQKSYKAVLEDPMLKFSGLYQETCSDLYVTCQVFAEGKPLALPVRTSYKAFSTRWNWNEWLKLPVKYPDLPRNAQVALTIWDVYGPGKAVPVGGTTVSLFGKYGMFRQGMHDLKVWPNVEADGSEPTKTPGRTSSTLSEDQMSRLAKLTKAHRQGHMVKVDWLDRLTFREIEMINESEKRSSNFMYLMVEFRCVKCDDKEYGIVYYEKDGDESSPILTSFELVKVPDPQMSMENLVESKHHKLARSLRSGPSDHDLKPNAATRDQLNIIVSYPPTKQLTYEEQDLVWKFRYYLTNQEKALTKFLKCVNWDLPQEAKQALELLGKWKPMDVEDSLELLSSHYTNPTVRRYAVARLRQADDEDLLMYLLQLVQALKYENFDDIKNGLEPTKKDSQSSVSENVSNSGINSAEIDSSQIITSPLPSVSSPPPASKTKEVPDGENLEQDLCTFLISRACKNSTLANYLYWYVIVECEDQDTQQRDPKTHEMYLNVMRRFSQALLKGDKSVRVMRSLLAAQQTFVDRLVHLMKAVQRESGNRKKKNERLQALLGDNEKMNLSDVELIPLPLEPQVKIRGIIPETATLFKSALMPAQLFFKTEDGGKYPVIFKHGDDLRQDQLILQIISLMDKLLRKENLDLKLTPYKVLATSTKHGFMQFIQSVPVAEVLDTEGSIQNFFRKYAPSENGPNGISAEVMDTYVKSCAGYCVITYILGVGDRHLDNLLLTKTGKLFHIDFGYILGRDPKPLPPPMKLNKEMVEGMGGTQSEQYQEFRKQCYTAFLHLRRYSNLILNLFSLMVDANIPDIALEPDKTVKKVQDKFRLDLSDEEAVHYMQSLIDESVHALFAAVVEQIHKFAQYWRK
Sequence of Dual specificity protein kinase CLK1 (P49759 whole entry): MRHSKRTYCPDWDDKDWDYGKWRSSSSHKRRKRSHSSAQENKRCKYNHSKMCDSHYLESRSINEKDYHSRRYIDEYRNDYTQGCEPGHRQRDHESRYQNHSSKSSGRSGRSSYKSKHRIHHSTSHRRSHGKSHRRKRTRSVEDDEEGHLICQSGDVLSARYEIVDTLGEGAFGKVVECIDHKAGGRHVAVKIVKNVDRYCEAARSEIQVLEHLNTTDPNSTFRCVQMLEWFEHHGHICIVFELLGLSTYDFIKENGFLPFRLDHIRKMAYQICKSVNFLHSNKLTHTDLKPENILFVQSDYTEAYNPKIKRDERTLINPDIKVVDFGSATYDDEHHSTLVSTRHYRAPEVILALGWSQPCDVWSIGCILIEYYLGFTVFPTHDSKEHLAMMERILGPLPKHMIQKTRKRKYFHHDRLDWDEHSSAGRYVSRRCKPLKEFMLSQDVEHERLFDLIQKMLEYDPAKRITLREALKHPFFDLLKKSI

As usually defined, the pEC50 is the negative decadic logarithm of the EC50, by convention in mol/L. Lower therefore signals a high EC50. Usually pKd stands for the negative decadic logarithm of the Kd, by convention in mol/L. One may read the pIC50 as the negative decadic logarithm of the IC50, by convention in mol/L. One may read the half-life as how long it takes for the measured level to halve. A high value points to slow decline. `Cc1n[nH]c2ccc(-c3nnc(C)n3Cc3ccc(C(F)(F)F)cc3)cc12`: the negative logarithm of the EC50 (pEC50) in [1] is less than 5.00. The values for the pKd in data set [2], in [8] and in [13] were 5.38, 6.60 and 7.05, respectively. Besides, the inhibition entry in [3] and in data set [14] was “Dose-Dependent Effect” in each case. Besides, in [4], the bioavailability worked out at 102%. Moreover, the inhibition in vivo at 3 mg/kg in data set [5] was 84.8%. Moreover, the negative logarithm of the IC50 (pIC50) is 7.93 in [6] and 4.35 in data set [11]. In data set [7], the CLint scaled at 1 µM is 148 mL/min/kg. The half-life in data set [9] is 3.9 h; in data set [10] it was 3.8 h. For the same compound, in data set [12], the LBF was found to be 7.2%.
